Patent US11760754B2, “Heterocyclic mitochondrial activity inhibitors and uses thereof” (UNIVERSITÉ DE MONTRÉAL, priority 2017, dated 2023)

What was measured:
[1] = tested on: OCI-AML3 cells; experiment: OCI-AML3 cell growth inhibition, dose-response viability assay (CellTiterGlo); type: cell-based; conditions: for EC50: Homo sapiens, OCI-AML-3, 144 h, read-out: AML-3 EC50
Summary of the method: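 OCI-AML3 cells seeded, then exposed to compound in serial dilutions from 10 μM to 0.5 nM, in duplicate or quadruplicate. Viability read by CellTiter-Glo.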

[2] = tested on: MLL-AF9 cells; experiment: MLL-AF9 leukemia cell growth inhibition, dose-response viability assay (CellTiterGlo); type: cell-based, murine; conditions: Mus musculus, MLL-AF9, 120 h, read-out: MLL-AF9 EC50
Summary of the method: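 Murine MLL-AF9 leukemia cells (female, MSCV MLL-AF9 IRES Puro transduced) were treated with serial compound dilutions from 10 μM to 0.5 nM in duplicates or quadruplicates. Viability read by CellTiterGlo dose-response.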

[3] = tested on: AML patient cells; experiment: Primary AML patient cell dose-response viability assay (chemical screen); conditions: 41 AML patient specimens, primary screen

| Compound | EC50 [1] [µM] | EC50 [2] [µM] | sensitivity of AML patient specimens [3] | OCI-AML3 cells sensitive to the compound (dose response) ([1]; OCI-AML3 cells) |
| --- | --- | --- | --- | --- |
| CS(=O)(=O)c1ccc(/C=C/c2nc(COc3ccc(CCCCn4ccnn4)cc3)co2)c(F)c1 [Compound 123, (E)-4-((4-(4-(1H-1,2,3-triazol-1-yl)butyl)phenoxy)methyl)-2-(2-fluoro-4-(methylsulfonyl)styryl)oxazole] | 0.1 to 0.5 | 0.1 to 0.5 | – | – |
| O=[N+]([O-])c1cc(F)cc2cc(-c3nc(COc4ccc(CCCCn5ccnn5)cc4)co3)[nH]c12 [Compound 126, 4-((4-(4-(1H-1,2,3-triazol-1-yl)butyl)phenoxy)methyl)-2-(5-fluoro-7-nitro-1H-indol-2-yl)oxazole] | 1 to 10 | > 10 | – | – |
| Fc1cc(C(F)(F)F)ccc1/C=C/c1nc(COc2ccc(CCCCn3ccnn3)cc2)cs1 [Compound 131, (E)-4-((4-(4-(1H-1,2,3-triazol-1-yl)butyl)phenoxy)methyl)-2-(2-fluoro-4-(trifluoromethyl)styryl)thiazole] | 0.1 to 0.5 | 0.1 to 0.5 | – | – |
| Fc1cc(C(F)(F)F)ccc1/C=C/c1nc(CSc2ccc(CCCn3ccnn3)cc2)co1 [Compound 132, (E)-4-(((4-(3-(1H-1,2,3-triazol-1-yl)propyl)phenyl)thio)methyl)-2-(2-fluoro-4-(trifluoromethyl)styryl)oxazole] | 1 to 10 | 0.5 to 1 | – | – |
| Fc1cc(C(F)(F)F)ccc1/C=C/c1nc(COc2ccc(CCCCn3ccnn3)nc2)co1 [Compound 133, (E)-4-(((6-(4-(1H-1,2,3-triazol-1-yl)butyl)pyridin-3-yl)oxy)methyl)-2-(2-fluoro-4-(trifluoromethyl)styryl)oxazole] | 0.1 to 0.5 | 0.05 to 0.1 | – | – |
| Fc1cc(C(F)(F)F)ccc1/C=C/c1nc(Cc2ccc(CCCCn3ccnn3)cc2)co1 [Compound 134, (E)-4-(4-(4-(1H-1,2,3-triazol-1-yl)butyl)benzyl)-2-(2-fluoro-4-(trifluoromethyl)styryl)oxazole] | 1 to 10 | 0.5 to 1 | – | – |
| Fc1cc(C(F)(F)F)ccc1/C=C/c1nc(COc2ccc(CCCCc3ncccn3)cc2)co1 [Compound 139, (E)-2-(2-fluoro-4-(trifluoromethyl)styryl)-4-((4-(4-(pyrimidin-2-yl)butyl)phenoxy)methyl)oxazole] | > 10 | 1 to 10 | – | – |
| Fc1cc(C(F)(F)F)ccc1/C=C/c1nc(COc2ccc(CCCCc3ccccn3)cc2)co1 [Compound 140, (E)-2-(2-fluoro-4-(trifluoromethyl)styryl)-4-((4-(4-(pyridin-2-yl)butyl)phenoxy)methyl)oxazole] | > 10 | 1 to 10 | – | – |
| Fc1ccc2cc(-c3nc(COc4ccc(CCCCn5ccnn5)cc4)co3)oc2c1 [Compound 142, 4-((4-(4-(1H-1,2,3-triazol-1-yl)butyl)phenoxy)methyl)-2-(6-fluorobenzofuran-2-yl)oxazole] | 0.5 to 1 | 0.1 to 0.5 | – | – |
| Fc1ccc2cc(-c3nc(COc4ccc(CCCCn5ccnn5)cc4)co3)sc2c1 [Compound 143, 4-((4-(4-(1H-1,2,3-triazol-1-yl)butyl)phenoxy)methyl)-2-(6-fluorobenzo[b]thiophen-2-yl)oxazole] | 1 to 10 | 0.1 to 0.5 | – | – |
| Cc1oc(/C=C/c2ccc(C(F)(F)F)cc2F)nc1COc1ccc(CCCCn2ccnn2)cc1 [Compound 145, (E)-4-((4-(4-(1H-1,2,3-triazol-1-yl)butyl)phenoxy)methyl)-2-(2-fluoro-4-(trifluoromethyl)styryl)-5-methyloxazole] | 0.5 to 1 | 0.1 to 0.5 | – | – |
| Fc1cc(C(F)(F)F)ccc1/C=C/c1nc(CSc2ccc(CCCCn3ccnn3)cc2)co1 [Compound 146, (E)-4-(((4-(4-(1H-1,2,3-triazol-1-yl)butyl)phenyl)thio)methyl)-2-(2-fluoro-4-(trifluoromethyl)styryl)oxazole] | 1 to 10 | 0.1 to 0.5 | – | – |
| CS(=O)(=O)CCNCc1ccc(-c2ccc3ncnc(Nc4ccc(OCc5cccc(F)c5)c(Cl)c4)c3c2)o1 [Lapatinib, Lapatinib ditosylate, reference compound] | – | – | resistant | not |

Now from value to compound, other results behind:

| EC50 [1] [µM] | EC50 [2] [µM] | Compound | sensitivity of AML patient specimens [3] | OCI-AML3 cells sensitive to the compound (dose response) ([1]; OCI-AML3 cells) |
| --- | --- | --- | --- | --- |
| < 0.05 | 0.05 to 0.1 | Fc1cc(OC(F)(F)F)ccc1/C=C/c1nc(COc2ccc(CCCCn3ccnn3)cc2)co1 [Compound 124, (E)-4-((4-(4-(1H-1,2,3-triazol-1-yl)butyl)phenoxy)methyl)-2-(2-fluoro-4-(trifluoromethoxy)styryl)oxazole] | – | – |
| 0.05 to 0.1 | 0.1 to 0.5 | COC(=O)c1ccc(/C=C/c2nc(COc3ccc(CCCCn4ccnn4)cc3)co2)c(F)c1 [Compound 125, methyl (E)-4-(2-(4-((4-(4-(1H-1,2,3-triazol-1-yl)butyl)phenoxy)methyl)oxazol-2-yl)vinyl)-3-fluorobenzoate] | – | – |
| < 0.05 | < 0.05 | Fc1ccc2cc(-c3nc(COc4ccc(CCCCn5ccnn5)cc4)co3)[nH]c2c1 [Compound 127, 4-((4-(4-(H-1,2,3-triazol-1-yl)butyl)phenoxy)methyl)-2-(6-fluoro-1H-indol-2-yl)oxazole] | – | – |
| < 0.05 | < 0.05 | Fc1cc(F)c2cc(-c3nc(COc4ccc(CCCCn5ccnn5)cc4)co3)[nH]c2c1 [Compound 128, 4-((4-(4-(1H-1,2,3-triazol-1-yl)butyl)phenoxy)methyl)-2-(4,6-difluoro-1H-indol-2-yl)oxazole] | – | – |
| < 0.05 | < 0.05 | O=[N+]([O-])c1ccc2cc(-c3nc(COc4ccc(CCCCn5ccnn5)cc4)co3)[nH]c2c1 [Compound 129, 4-((4-(4-(1H-1,2,3-triazol-1-yl)butyl)phenoxy)methyl)-2-(6-nitro-1H-indol-2-yl)oxazole] | – | – |
| < 0.05 | < 0.05 | Fc1cc(C(F)(F)F)ccc1/C=C/c1nc(COc2ccc(SCCCn3ccnn3)cc2)co1 [Compound 130, (E)-4-((4-((3-(1H-1,2,3-triazol-1-yl)propyl)thio)phenoxy)methyl)-2-(2-fluoro-4-(trifluoromethyl)styryl)oxazole] | – | – |
| < 0.05 | 0.05 to 0.1 | Fc1cc(C(F)(F)F)ccc1/C=C/c1nc(COc2ccc(CCCCc3cccnn3)cc2)co1 [Compound 138, (E)-2-(2-fluoro-4-(trifluoromethyl)styryl)-4-((4-(4-(pyridazin-3-yl)butyl)phenoxy)methyl)oxazole] | – | – |
| < 0.05 | 0.05 to 0.1 | N#Cc1ccc(/C=C/c2nc(COc3ccc(SCCCn4ccnn4)cc3)co2)c(F)c1 [Compound 141, (E)-4-(2-(4-((4-((3-(1H-1,2,3-triazol-1-yl)propyl)thio)phenoxy)methyl)oxazol-2-yl)vinyl)-3-fluorobenzonitrile] | – | – |
| < 0.05 | < 0.05 | Fc1cc(F)c2cc(-c3nc(COc4ccc(SCCCn5ccnn5)cc4)co3)[nH]c2c1 [Compound 144, 4-((4-((3-(1H-1,2,3-triazol-1-yl)propyl)thio)phenoxy)methyl)-2-(4,6-difluoro-1H-indol-2-yl)oxazole] | – | – |
| < 0.05 | < 0.05 | Fc1cc(C(F)(F)F)ccc1/C=C/c1nc(COc2ccc(SCCn3ccnn3)cc2)co1 [Compound 147, (E)-4-((4-((2-(1H-1,2,3-triazol-1-yl)ethyl)thio)phenoxy)methyl)-2-(2-fluoro-4-(trifluoromethyl)styryl)oxazole] | – | – |
